“Also recorded” adds a separate entry of the source.
Experiments:
[1] = First-pass inactivation in the liver after oral administration; conditions: phosphocholine-derivatized form; stated as believed
Source text: Subsequently, only a fraction of a percent of the administered drug is biologically available for function. […] When the phosphocholine moiety is removed by an esterase, such as phospholipase C, sphingomyelinase, etc., then the parent compound will be available for binding and function in the target tissue. Glucuronidation would only occur on its return to the liver after removal of the phosphocholine moiety.

[2] = system: cutaneous hypersensitivity immune response; experiment: DNCB-induced cutaneous contact hypersensitivity (ear swelling) in mice; format: in vivo, mice (Balb/c); conditions: for Effect on DNCB-induced cutaneous hypersensitivity immune response: 100 μg/day/mouse subcutaneously, twelve-day study, ear rechallenge with 1% DNCB, swelling on days 7–12; for Effect of dexamethasone on the response to the hormone: co-administered with dexamethasone, days 7–12
Description: The effects of DHEA-PC on cutaneous contact hypersensitivity was studied. In this study, mice (Balb/c) were immunologically challenged with DNCB (2% in ethanol) applied to a 2 cm area on the back. The steroid was injected subcutaneously (100 μg/day/mouse) throughout the twelve-day study period. Ears were rechallenged with DNCB (1% in ethanol) on days 7–12 and swelling was measured daily in order to evaluate the effect on the immune system.

[3] = Water/benzene extraction of the tritiated DHEA-phosphocholine reaction product, phases counted by scintillation; format: physicochemical
Description: A dehydroepiandrosterone(DHEA)-phosphocholine derivative was synthesized as follows: 1 mg of phosphocholine (calcium salt; Sigma Chemical, St. Louis, Mo.) was dissolved in 0.5 ml of formamide (Cat # S-7503; Lot # 55HO257; Sigma Chemical) and 0.5 ml of pyridine (Cat # P-4036; Lot # 55H1489; Sigma Chemical). 0.025 mCi of (1,2,6,7 ^3H(n)-Dehydroepiandrosterone (Cat # NET814; Lot # 3146097; 89.2 Ci/mmol; Dupont, NEN Products, Boston, Mass.) in 0.025 ml of ethanol was added. The reaction was catalyzed by the addition (as the dry solid) of 5 mg of dicyclohexylcarbodiimide (Cat # D-3129; Lot # 34hO647; Sigma Chemical). The reaction mixture was incubated overnight at room temperature. In the morning, 9 ml of water was added and the mixture extracted 3 times with 10 ml portions of benzene. The benzene extracts were combined and aliquots of both phases were counted in a scintillation counter. The results are set forth below:
The aqueous layer was re-extracted with benzene. The second benzene extraction yielded 272 cpm (0.01 M1) as a confirmation.
Free DHEA starting material would have been extracted quantitatively into benzene with this protocol.

neutral sphingomylenase = experiment: Hydrolysis of DHEA-PC by neutral sphingomylenase; format: biochemical
Description: DHEA-phosphocholine (DHEA-PC) was synthesized by sequential reaction of DHEA, choline, and water with phosphorous oxychloride. The synthetic product had the same HPLC retention time and the same mass-spectrum as did the endogenous, actual compound. […] When human serum extracts were analyzed, mass fragments were detected at the same retention time as synthetic material.

[4] = J. Med. Chem. 39:2156–2169, 1996; cited from earlier work
[5] = system: enzyme on lymphocyte cell membrane that cleaves phosphocholine; experiment: Lymphocyte cell membrane enzyme that cleaves phosphocholine from other compounds; format: cell-based; conditions: lymphocytes; data not shown
Source text: The conjugated therapeutic agents will be at least ten times more water soluble then the original alcohol. This will increase their bioavailability and decrease their metabolism to, e.g., the 3-glycoside in the case of steroids, which should be a major excretion pathway. The decreased glycoside formation will be caused by the presence of the phosphoester at that site. The derivative is not expected to be active prior to hydrolysis of the phospholipid group. […] The activity of this enzyme is stimulated ten-fold by TGF-α (data not shown). Without wishing to be bound by theory, it is believed that use of phospholipid-conjugated antibiotics of the present invention will lead to high concentrations of active agents at the site of an infection by the following mechanism. Lymphocytes are attracted to the site of an infection or inflammation where they release TGF-α, which, in turn, stimulates phospholipid hydrolysis in other subtypes. This same process will lead to local release of an active form of the antibiotic from the phospholipid diester conjugate. Because of the response of the enzyme to local concentrations of TGF-α, there should be a correspondingly high local concentration of the antibiotic. This will lead to effective therapy and lower toxicity.

For C[C@]12CC[C@@H](OP(=O)([O-])OCC[N+](C)(C)C)C[C@H]1CC[C@@H]1[C@@H]2CC[C@]2(C)C(=O)CC[C@@H]12, the “Fraction not metabolized at each pass through the liver” value [1] was “about 80%”.

With C[C@]12CC[C@H](O)CC1=CC[C@@H]1[C@@H]2CC[C@]2(C)C(=O)CC[C@@H]12 [DHEA, dehydroepiandrosterone] the “Effect on DNCB-induced cutaneous hypersensitivity immune response” value [2] was “similar, high level response” and the “Effect of dexamethasone on the response to the hormone” value (from here on “Effect of dexamethasone”) [2] was “not suppressed by dexamethasone”.

For C[C@]12CC[C@H](OP(=O)([O-])OCC[N+](C)(C)C)CC1=CC[C@@H]1[C@@H]2CC[C@]2(C)C(=O)CC[C@@H]12 [DHEA-PC, DHEA-3-Phosphocholine], the “Radioactivity in second benzene extraction” value ([3]; 0.01 M1, re-extraction of the aqueous layer with benzene) was 272 cpm, the “Radioactivity in aqueous phase” value ([3]; 0.01 ml aliquot, after 3 extractions with 10 ml benzene, 3H label) was 10,729 cpm and the “Radioactivity in benzene phase” value ([3]; 0.01 ml aliquot, combined benzene extracts, 3H label) was 1,121 cpm. For the same compound, the “Phase in which the reaction product stays (hydrophilic character)” value ([3]; water/benzene, free DHEA would have been extracted quantitatively into benzene) was “remains in the aqueous phase”, the “Hydrolysis by neutral sphingomylenase” value (neutral sphingomylenase) was “hydrolyzed” and the “Effect on DNCB-induced cutaneous hypersensitivity immune response” value [2] was “potentiated dinitrochlorobenzene-induced sensitization; also recorded: enhanced the cutaneous hypersensitivity immune response”. The “Effect of dexamethasone” value [2] was “not suppressed by dexamethasone”.

For C[C@]12CC[C@H](OS(=O)(=O)O)CC1=CC[C@@H]1[C@@H]2CC[C@]2(C)C(=O)CC[C@@H]12 [DHEA-sulfate], the “Effect on DNCB-induced cutaneous hypersensitivity immune response” value [2] was “similar, high level response” and the “Effect of dexamethasone” value [2] was “not suppressed by dexamethasone”.

For O=C1N(Cc2ccc(CO)cc2)[C@H](Cc2ccccc2)[C@H](O)[C@@H](O)[C@@H](Cc2ccccc2)N1Cc1ccc(CO)cc1 [DMP-323], the Aqueous solubility [4] is listed as “low”.

In the case of “TGF-α: factor released by lymphocytes that stimulates phospholipid hydrolysis”, the “Stimulation of the activity of the phosphocholine-cleaving enzyme” value [5] is reported as “ten-fold”.

From patent US7060290B1, “Phosphocholine linked prodrug derivatives” (Supergen, Inc., priority 1999, dated 2006)
